Assay results taken from the supplement of paper PMC11208160.

Assay: recombinant barcode read abundance after kanamycin selection (control-corrected) (log10(CPM+1)); higher = more efficient recombination; sequences stand for … in AGTGCAGAGAAAATCGGCCAGTTTTCTCTGCCTGCAGTCCGCATGCCGT…AGATTTATGCAGCGGACTGCCTTTCTCCCAAAGTGATAAACCGGACAGTATCATGGACCGGTTTTCCCGGTAATCCGTATTTGCAAGGTTGGTTTCACT; site = the 11-nt target
Experimental: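 Pooled E. coli target-specificity screen for the IS621 bridge recombinase. Each library plasmid pairs an 11-nt target (CT core) with a bridge RNA whose target-binding loop (9-nt LTG + 4-nt RTG) is reprogrammed; the rest of the 177-nt WT IS621 bridge RNA scaffold is fixed. The plasmid is co-electroporated with a WT donor plasmid; recombinase is induced with 0.1 mM IPTG and recombinants are selected on kanamycin. Recombinant barcodes are sequenced, converted to CPM, averaged over two biological replicates and corrected by the unselected control CPM. Molecule = full bridge RNA written as DNA: LTG = specificity nt 1-9, RTG = reverse complement of specificity nt 8-11, in the WT scaffold.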
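Also: IS621 recombinase and bridge RNA in Escherichia coli cells.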

Point of comparison: “TCTAAGTCTTGGGTTCTAACCTGTTGCCG (site TCTAAGTCTGG)”, “recombinant barcode read abundance (log10)” value 0.0885. Against it:
- AAGTTGTCTTGGGTTCTAACCTGTTGCGT (site CAGTTGTCTAG) — within 0.2 log units, 0.0897
- AGGAGCCCTTGGGTTCTAACCTGTTGCGA (site AGGAGCCCTTC) — higher, 2.84
- CTATATACTTGGGTTCTAACCTGTTGCCA (site CTGTATACTTG) — within 0.2 log units, 0
- GTTTCAACTTGGGTTCTAACCTGTTGCCA (site CAACACCCTAT) — within 0.2 log units, 0.0582
- TAGTTGACTTGGGTTCTAACCTGTTGCCA (site TAGTTGACTTG) — higher, 0.986
- CTCCGCTCTTGGGTTCTAACCTGTTGCCT (site ATCCGCTCTAG) — within 0.2 log units, 0.211
- GACTCTCCTTGGGTTCTAACCTGTTGCGT (site GACTCTCCTAG) — within 0.2 log units, 0
- GAGGGTCCTTGGGTTCTAACCTGTTGCGT (site GAGGGTCCTAA) — within 0.2 log units, 0.194
- GCTTCGGCTTGGGTTCTAACCTGTTGCCT (site GCGTCGGCTAG) — within 0.2 log units, 0.0514
- AGGAACACTTGGGTTCTAACCTGTTGCCT (site AGGAACACTAG) — higher, 1.94
- TCTTGGACTTGGGTTCTAACCTGTTGCAC (site AGGGACCCTAG) — within 0.2 log units, 0.0242
- AGAAATACTTGGGTTCTAACCTGTTGCCG (site GTCCTACCTTA) — within 0.2 log units, 0.0574
- TTAGGGTCTTGGGTTCTAACCTGTTGCCT (site TTAGGGACTAG) — within 0.2 log units, 0.252
- TAAAGAGCTTGGGTTCTAACCTGTTGCGG (site TATAGAGCTCC) — within 0.2 log units, 0.236
- TAGGCTCCTTGGGTTCTAACCTGTTGCAC (site TAGGCTCCTGT) — higher, 1.94
- GACAAACCTTGGGTTCTAACCTGTTGCCT (site GTCAAACCTAA) — within 0.2 log units, 0.00743
- GTGTTTGCTTGGGTTCTAACCTGTTGCCT (site GGGTTTGCTAG) — within 0.2 log units, 0.0616
- GATAACTCTTGGGTTCTAACCTGTTGCCT (site AATAACTCTAG) — higher, 0.802
- TCTGGGCCTTGGGTTCTAACCTGTTGCTA (site TCTGGGCCTAA) — higher, 0.42
- AGTCTGCCTTGGGTTCTAACCTGTTGCCT (site CGTCTGCCTAG) — within 0.2 log units, 0.0547
- CATCCTACTTGGGTTCTAACCTGTTGCCG (site CATCCTACTAT) — within 0.2 log units, 0.0476
- GTCACAACTTGGGTTCTAACCTGTTGCCG (site GTCACAACTCG) — higher, 0.339
- TTGTGAGCTTGGGTTCTAACCTGTTGCGC (site TTGTGAGCTGC) — higher, 1.68
- CACACTCCTTGGGTTCTAACCTGTTGCAG (site CACACTCCTCT) — higher, 0.498
- AGGCGTCCTTGGGTTCTAACCTGTTGCCG (site AGGCGTCCTCG) — higher, 1.24
- TGTAGAGCTTGGGTTCTAACCTGTTGCCG (site TGTCGAGCTCG) — higher, 0.483
- ATGCCGACTTGGGTTCTAACCTGTTGCCT (site ATGCCTACTAG) — within 0.2 log units, 0.11
- GGACCTCCTTGGGTTCTAACCTGTTGCAT (site GGACCTCCTAA) — higher, 0.342
- GAGCGCTCTTGGGTTCTAACCTGTTGCTC (site GAGCGCTCTAA) — higher, 0.525
- AAAGGTTCTTGGGTTCTAACCTGTTGCCT (site ACAGGTTCTAG) — within 0.2 log units, 0.0935
- CCTTGAGCTTGGGTTCTAACCTGTTGCTG (site CCTTGAGCTCA) — higher, 0.308
- AGTACTACTTGGGTTCTAACCTGTTGCCT (site AATACTACTAG) — within 0.2 log units, 0.0591
- CTAGACTCTTGGGTTCTAACCTGTTGCTC (site CTAGACTCTTA) — within 0.2 log units, 0.275
- GAGGCGGCTTGGGTTCTAACCTGTTGCTT (site GAGGCGGCTAA) — higher, 1.04
- GGAGAAGCTTGGGTTCTAACCTGTTGCCT (site GGAGATGCTAG) — within 0.2 log units, 0.158
- AATGAATCTTGGGTTCTAACCTGTTGCCT (site AATGTATCTAG) — higher, 0.301
- GTCGGGACTTGGGTTCTAACCTGTTGCCT (site GTCGGGACTAG) — higher, 1.51
- GACTATTCTTGGGTTCTAACCTGTTGCCT (site GAATATTCTAG) — within 0.2 log units, 0.0378
- CTCTAGACTTGGGTTCTAACCTGTTGCTG (site CTCTAGACTCA) — higher, 1.82
- GTCTACTCTTGGGTTCTAACCTGTTGCTG (site GTCTTCTCTAA) — within 0.2 log units, 0.0134
- CTACACACTTGGGTTCTAACCTGTTGCTC (site CTACACACTGA) — higher, 1.64
- TACTCACCTTGGGTTCTAACCTGTTGCTT (site TACTCACCTAA) — within 0.2 log units, 0.287
- TCAAGGCCTTGGGTTCTAACCTGTTGCCT (site GCAAGGCCTAG) — within 0.2 log units, 0.106
- TCCGGTACTTGGGTTCTAACCTGTTGCAT (site TCCCGTACTAT) — within 0.2 log units, 0.0823
- CTGAGAGCTTGGGTTCTAACCTGTTGCCT (site CTGAGAGCTAG) — higher, 1.61
- GCATATACTTGGGTTCTAACCTGTTGCGT (site GCATATACTAC) — higher, 2.15
- AGTAAGACTTGGGTTCTAACCTGTTGCGT (site AGTAAGACTAA) — within 0.2 log units, 0.062
- CTGTGAACTTGGGTTCTAACCTGTTGCCT (site CTGTGAACTAG) — higher, 0.679
- GTCCTACCTTGGGTTCTAACCTGTTGCCT (site GTCCTACCTAG) — higher, 1.54
- TAGTAACCTTGGGTTCTAACCTGTTGCTT (site TAGTACCCTCA) — within 0.2 log units, 0.0923
- ACCGCGACTTGGGTTCTAACCTGTTGCCT (site ACCGTGACTAG) — within 0.2 log units, 0.121
- CAGCTACCTTGGGTTCTAACCTGTTGCCT (site CGGCTACCTAG) — within 0.2 log units, 0.226
- TCACTTCCTTGGGTTCTAACCTGTTGCCT (site TCACCTTCTAG) — within 0.2 log units, 0.121
- AGGATTCCTTGGGTTCTAACCTGTTGCCT (site ACGATTCCTAG) — higher, 0.634
- TCTAGAGCTTGGGTTCTAACCTGTTGCGG (site TCTAGAGCTCC) — higher, 1.61
- GCAGGGTCTTGGGTTCTAACCTGTTGCTT (site GCTGGGTCTAA) — higher, 0.355
- TCACGTGCTTGGGTTCTAACCTGTTGCCT (site TCACATGCTAG) — within 0.2 log units, 0.0819
- CCTTGTACTTGGGTTCTAACCTGTTGCTT (site AGCATCTCTCG) — within 0.2 log units, 0.0216
- GCTTCGGCTTGGGTTCTAACCTGTTGCCT (site GCCTCGGCTAG) — within 0.2 log units, 0.0138
- GACTATGCTTGGGTTCTAACCTGTTGCCT (site GACTATGCTAG) — higher, 0.461
- CTGGAGTCTTGGGTTCTAACCTGTTGCCT (site CTGGAGTCTAG) — higher, 2.33
- TTCATGTCTTGGGTTCTAACCTGTTGCCT (site TTCACGTCTAG) — within 0.2 log units, 0.0724
- TGTAAGACTTGGGTTCTAACCTGTTGCAG (site TGTAAGACTCT) — higher, 0.644
- ATGATTACTTGGGTTCTAACCTGTTGCCT (site ATAGTTACTAG) — within 0.2 log units, 0.0836
- GTGCAGACTTGGGTTCTAACCTGTTGCCT (site GTCCAGACTAG) — higher, 0.483
- TAGTTGACTTGGGTTCTAACCTGTTGCCA (site TAGTTAACTTG) — higher, 0.45
- TAACCTACTTGGGTTCTAACCTGTTGCAT (site TAACTTACTAT) — within 0.2 log units, 0.0519
- TAATGATCTTGGGTTCTAACCTGTTGCCT (site TAATGATCTAG) — higher, 0.635
- CTCAGGTCTTGGGTTCTAACCTGTTGCCA (site CTCAGGTCTTG) — within 0.2 log units, 0.193
- CCGTCGTCTTGGGTTCTAACCTGTTGCCT (site CCGTCATCTAG) — within 0.2 log units, 0.0517
- GACTCTCCTTGGGTTCTAACCTGTTGCGT (site GACTCTCCTAC) — higher, 1.75
- ATCGAGTCTTGGGTTCTAACCTGTTGCCT (site ACCGAGTCTAG) — higher, 1.11
- ACATACACTTGGGTTCTAACCTGTTGCCT (site ACATACACTAG) — higher, 0.991
- CGGCCCACTTGGGTTCTAACCTGTTGCGG (site CGGCCCACTCC) — higher, 2.35
- TAGAAGGCTTGGGTTCTAACCTGTTGCTT (site TAGAAGGCTAA) — higher, 0.805
- TTGCCTTCTTGGGTTCTAACCTGTTGCCT (site TCGCCTTCTAG) — within 0.2 log units, 0.0687
- AGGGCGTCTTGGGTTCTAACCTGTTGCCG (site AGGGCATCTAG) — within 0.2 log units, 0.0811
- GCGTGCCCTTGGGTTCTAACCTGTTGCTA (site GCGTGCCCTTA) — higher, 0.356
- TCCGAGACTTGGGTTCTAACCTGTTGCCC (site TCCGAGACTGG) — higher, 1.08
- AACTAAACTTGGGTTCTAACCTGTTGCCT (site AACTTAACTAG) — within 0.2 log units, 0.0783
- ATGCACCCTTGGGTTCTAACCTGTTGCCT (site ATGCACCCTAG) — higher, 2
